Measured values from patent US4904590A, “Antibiotic A80915 and process for its production” (Eli Lilly and Company, priority 1988, dated 1990).
In brackets after ≈: the same amount, converted by molar mass. Like-named read-outs stand apart in the source and are kept apart here.

How the values were obtained:
[1] = test system: Peptococcus asaccharolyticus 1302; test: Susceptibility of anaerobic bacterial isolates (MIC), agar-dilution; format: cell-based
Peptococcus prevoti 1281 = test: as above; format: cell-based
[2] = test system: Bacteriodes thetaiotaomicron 1438; test: as above; format: cell-based
[3] = test system: Bacteriodes vulgatis 1211; test: as above; format: cell-based
[4] = test system: Bacteriodes corrodens 1874; test: as above; format: cell-based
[5] = test system: Bacteriodes fragilis 1936B; test: as above; format: cell-based
[6] = test system: Clostridium perfringens 81; test: microbe, parasite or virus in culture; format: cell-based; details: Clostridium perfringens, 81, 24 h
[7] = test system: Fusobacterium necrophorum 6054A; test: Susceptibility of anaerobic bacterial isolates (MIC), agar-dilution; format: cell-based
Bacteriodes fragilis 111 = test: as above; format: cell-based
Streptococcus sp. = format: cell-based; details: Veterinary organism Streptococcus sp.; agar-dilution
Procedure: (§1) The A80915 antibiotics inhibit the growth of bacteria which are pathogenic to animal life. […] The MIC's in Table III were determined by conventional agar-dilution assays.

[8] = test system: Staphylococcus epidermis EPI1; format: cell-based
Procedure: as §1

[9] = test system: Staphylococcus epidermis 222; format: cell-based
Procedure: as §1

[10] = test system: Staphylococcus aureus X400; format: cell-based
Procedure: as §1

[11] = test system: Streptococcus faecium 2041; format: cell-based; details: Enterococcus faecium
Procedure: as §1

Mycoplasma gallisepticum = format: cell-based; details: Mycoplasmoides gallisepticum; Veterinary organism Mycoplasma gallisepticum; agar-dilution
Procedure: as §1

Staphylococcus sp. = format: cell-based; details: Veterinary organism Staphylococcus sp.; agar-dilution
Procedure: as §1

[12] = test system: Streptococcus faecium X66; format: cell-based; details: Enterococcus faecium
Procedure: as §1

Gram-negative = format: cell-based; details: agar-dilution
Procedure: as §1

[13] = test system: Staphylococcus aureus V41; format: cell-based
Procedure: as §1

Pasteurella multocida = format: cell-based; details: Veterinary organism Pasteurella multocida; agar-dilution
Procedure: as §1

[14] = test system: Streptococcus pneumoniae Park1; format: cell-based
Procedure: as §1

Salmonella typhimurium = format: cell-based; details: Salmonella enterica; Veterinary organism Salmonella typhimurium; agar-dilution
Procedure: as §1

[15] = test system: Staphylococcus aureus X1.1; format: cell-based
Procedure: as §1

[16] = test system: Streptococcus pyogenes C203; format: cell-based
Procedure: as §1

Mycoplasma hyopneumoniae = format: cell-based; details: Mesomycoplasma hyopneumoniae; Veterinary organism Mycoplasma hyopneumoniae; agar-dilution
Procedure: as §1

Escherichia coli = format: cell-based; details: Veterinary organism Escherichia coli; agar-dilution
Procedure: as §1

[17] = test system: Bordetella bronchiseptica; format: cell-based; details: Veterinary organism Bordetella bronchiseptica; agar-dilution
Procedure: as §1

Pasteurella hemolytica = format: cell-based; details: Veterinary organism Pasteurella hemolytica; agar-dilution
Procedure: as §1

[18] = test system: Peptostreptococcus anaerobius 1428; test: Susceptibility of anaerobic bacterial isolates (MIC), agar-dilution; format: cell-based
[19] = test system: Propionibacterium acnes 79; test: as above; format: cell-based
[20] = test system: Fusobacterium symbiosum 1470; test: as above; format: cell-based
[21] = test system: Eubacterium aerofaciens 1235; test: as above; format: cell-based; details: Collinsella aerofaciens; Eubacterium aerofaciens 1235; agar-dilution, 24-hour incubation; read-out: MIC
Trichomonas vaginalis = test: Anti-protozoan activity (MIC); format: cell-based
Trichomonas foetus = test: Anti-protozoan activity (MIC); format: cell-based; details: Tritrichomonas foetus
[22] = test system: Bacteriodes melaninogenicus 2736; test: Susceptibility of anaerobic bacterial isolates (MIC), agar-dilution; format: cell-based
[23] = Acute toxicity in mice, intraperitoneal injection; details: mouse, in vivo, ip
Excerpt: The acute toxicity of the A80915 antibiotics in mice, when administered by intraperitoneal injection and expressed as LD50, is shown in Table V.

[24] = test system: Bacteriodes melaninogenicus 1856/28; test: Susceptibility of anaerobic bacterial isolates (MIC), agar-dilution; format: cell-based; details: Bacteriodes melaninogenicus 1856/28; agar-dilution, 24-hour incubation; read-out: MIC
[25] = test system: Bacteriodes fragilis 1877; test: as above; format: cell-based
[26] = test system: Clostridium difficile 2994; test: as above; format: cell-based; details: Clostridioides difficile; Clostridium difficile 2994; agar-dilution, 24-hour incubation; read-out: MIC
[27] = test system: Peptostreptococcus intermedius 1264; test: as above; format: cell-based
[28] = test system: Clostridium septicum 1128; test: as above; format: cell-based; details: 24-hour incubation
Procedure: The A80915 antibiotics also are active against anaerobic bacteria. […] End points were read after 24-hour incubation.

Candida albicans = test: Anti-fungal activity (MIC); format: cell-based
[29] = Spontaneous loss of nitrogen on standing in solvent; format: physicochemical; details: standing at room temperature in a solvent such as methanol, ethanol or water
Excerpt: Loss of nitrogen is accelerated by, for example, heating or the addition of salts or mild reducing agents such as sodium hyposulfite, and the like.

[30] = Staphylococcus epidermis EPI1, agar-dilution, read-out: MIC
[31] = Staphylococcus epidermis 222, agar-dilution, read-out: MIC
[32] = Staphylococcus aureus X400, agar-dilution, read-out: MIC
[33] = Streptococcus faecium 2041, agar-dilution, read-out: MIC
[34] = Streptococcus faecium X66, agar-dilution, read-out: MIC
[35] = Staphylococcus aureus V41, agar-dilution, read-out: MIC
[36] = Streptococcus pneumoniae Park1, agar-dilution, read-out: MIC
[37] = Staphylococcus aureus X1.1, agar-dilution, read-out: MIC
[38] = Streptococcus pyogenes C203, agar-dilution, read-out: MIC

SMILES: Cc1c(O)cc2c(c1O)C(=O)[C@@]1(Cl)C[C@@H](Cl)C(C)(C)O[C@@]1(C[C@H]1C(C)(C)[C@@H](Cl)CC[C@]1(C)O)C2=O [A80915C]
- MIC ([1]; Peptoniphilus asaccharolyticus, Peptococcus asaccharolyticus 1302, agar-dilution, 24-hour incubation, read-out: MIC): 2 µg/mL (≈ 3.65 µM)
- MIC (Peptococcus prevoti 1281; 24 h): 2 µg/mL (≈ 3.65 µM)
- MIC ([2]; 24 h): > 128 µg/mL
- MIC ([3]; 24 h): > 128 µg/mL
- MIC ([4]; 24 h): > 128 µg/mL
- MIC ([5]; 24 h): 4 µg/mL (≈ 7.3 µM)
- MIC [6]: 8 µg/mL (≈ 14.6 µM)
- MIC ([7]; Fusobacterium necrophorum, 6054A, 24 h): > 128 µg/mL
- MIC (Bacteriodes fragilis 111; 24 h): 128 µg/mL (≈ 234 µM)
- MIC (Streptococcus sp.): 3.12 µg/mL (≈ 5.69 µM)
- MIC ([8]; Staphylococcus, EPI1): > 128 µg/mL
- MIC ([9]; Staphylococcus, 222): > 128 µg/mL
- MIC ([10]; Staphylococcus aureus, X400): > 128 µg/mL
- MIC [11]; 2041: > 128 µg/mL
- MIC (Mycoplasma gallisepticum): 25 µg/mL (≈ 45.6 µM)
- MIC (Staphylococcus sp.): 1.56 µg/mL (≈ 2.85 µM)
- MIC ([12]; X66): > 128 µg/mL
- MIC (Gram-negative): > 128 µg/mL
- MIC ([13]; Staphylococcus aureus, V41): > 128 µg/mL
- MIC (Pasteurella multocida): 50 µg/mL (≈ 91.3 µM)
- MIC ([14]; Streptococcus pneumoniae, PARK1): > 128 µg/mL
- MIC (Salmonella typhimurium): > 50 µg/mL
- MIC ([15]; Staphylococcus aureus, X1.1): > 128 µg/mL
- MIC ([16]; Streptococcus pyogenes, C203): > 128 µg/mL
- MIC (Mycoplasma hyopneumoniae): > 50 µg/mL
- MIC (Escherichia coli): > 50 µg/mL
- MIC [17]: > 50 µg/mL
- MIC (Pasteurella hemolytica): 50 µg/mL (≈ 91.3 µM)
- MIC ([18]; Peptostreptococcus anaerobius, 1428, 24 h): 4 µg/mL (≈ 7.3 µM)
- MIC ([19]; Cutibacterium acnes, 79, 24 h): 4 µg/mL (≈ 7.3 µM)
- MIC ([20]; Fusobacterium, 1470, 24 h): > 128 µg/mL
- MIC [21]: 8 µg/mL (≈ 14.6 µM)
- MIC (Trichomonas vaginalis): > 100 µg/mL
- MIC (Trichomonas foetus): > 100 µg/mL
- MIC ([22]; 24 h): > 128 µg/mL
- LD50 [23]: > 300 mg/kg
- MIC [24]: 64 µg/mL (≈ 117 µM)
- MIC ([25]; 24 h): 4 µg/mL (≈ 7.3 µM)
- MIC [26]: 8 µg/mL (≈ 14.6 µM)
- MIC ([27]; Peptostreptococcus, 1264, 24 h): 128 µg/mL (≈ 234 µM)
- MIC [28]: 8 µg/mL (≈ 14.6 µM)
- MIC (Candida albicans): > 80 µg/mL

SMILES: Cc1c([O-])c([N+]#N)c2c(c1O)C(=O)[C@@]1(Cl)C[C@@H](Cl)C(C)(C)O[C@@]1(C[C@H]1C(C)(C)[C@@H](Cl)CC[C@]1(C)O)C2=O [A80915D]
- MIC ([1]; Peptoniphilus asaccharolyticus, 1302, 24 h): 4 µg/mL (≈ 6.97 µM)
- MIC (Peptococcus prevoti 1281; Peptococcus prevoti 1281, agar-dilution, 24-hour incubation, read-out: MIC): 8 µg/mL (≈ 13.9 µM)
- MIC ([2]; Bacteriodes thetaiotaomicron 1438, agar-dilution, 24-hour incubation, read-out: MIC): > 128 µg/mL
- MIC ([3]; Bacteriodes vulgatis 1211, agar-dilution, 24-hour incubation, read-out: MIC): > 128 µg/mL
- MIC ([4]; Bacteriodes corrodens 1874, agar-dilution, 24-hour incubation, read-out: MIC): > 128 µg/mL
- MIC ([5]; Bacteriodes fragilis 1936B, agar-dilution, 24-hour incubation, read-out: MIC): 8 µg/mL (≈ 13.9 µM)
- MIC [6]: 16 µg/mL (≈ 27.9 µM)
- MIC ([7]; Fusobacterium necrophorum 6054A, agar-dilution, 24-hour incubation, read-out: MIC): 8 µg/mL (≈ 13.9 µM)
- MIC (Bacteriodes fragilis 111; Bacteriodes fragilis 111, agar-dilution, 24-hour incubation, read-out: MIC): 16 µg/mL (≈ 27.9 µM)
- MIC (Streptococcus sp.): 3.12 µg/mL (≈ 5.44 µM)
- MIC [8, 30]: 2 µg/mL (≈ 3.48 µM)
- MIC [9, 31]: 1 µg/mL (≈ 1.74 µM)
- MIC [10, 32]: 2 µg/mL (≈ 3.48 µM)
- MIC [11, 33]: 32 µg/mL (≈ 55.8 µM)
- MIC (Mycoplasma gallisepticum): > 50 µg/mL
- MIC (Staphylococcus sp.): 0.2 µg/mL (≈ 0.348 µM)
- MIC [12, 34]: 32 µg/mL (≈ 55.8 µM)
- MIC (Gram-negative): > 128 µg/mL
- MIC [13, 35]: 2 µg/mL (≈ 3.48 µM)
- MIC (Pasteurella multocida): 3.12 µg/mL (≈ 5.44 µM)
- MIC [14, 36]: 1 µg/mL (≈ 1.74 µM)
- MIC (Salmonella typhimurium): > 50 µg/mL
- MIC [15, 37]: 1 µg/mL (≈ 1.74 µM)
- MIC [16, 38]: 2 µg/mL (≈ 3.48 µM)
- MIC (Mycoplasma hyopneumoniae): 25 µg/mL (≈ 43.6 µM)
- MIC (Escherichia coli): > 50 µg/mL
- MIC [17]: > 50 µg/mL
- MIC (Pasteurella hemolytica): 12.5 µg/mL (≈ 21.8 µM)
- MIC ([18]; Peptostreptococcus anaerobius 1428, agar-dilution, 24-hour incubation, read-out: MIC): 8 µg/mL (≈ 13.9 µM)
- MIC ([19]; Cutibacterium acnes, Propionibacterium acnes 79, agar-dilution, 24-hour incubation, read-out: MIC): 16 µg/mL (≈ 27.9 µM)
- MIC ([20]; Fusobacterium symbiosum 1470, agar-dilution, 24-hour incubation, read-out: MIC): > 128 µg/mL
- MIC [21]: 16 µg/mL (≈ 27.9 µM)
- MIC (Trichomonas vaginalis): 25 µg/mL (≈ 43.6 µM)
- MIC (Trichomonas foetus): 25 µg/mL (≈ 43.6 µM)
- MIC ([22]; Bacteriodes melaninogenicus 2736, agar-dilution, 24-hour incubation, read-out: MIC): > 128 µg/mL
- LD50 [23]: 11.8 mg/kg
- MIC [24]: 32 µg/mL (≈ 55.8 µM)
- MIC ([25]; Bacteriodes fragilis 1877, agar-dilution, 24-hour incubation, read-out: MIC): 16 µg/mL (≈ 27.9 µM)
- MIC [26]: 16 µg/mL (≈ 27.9 µM)
- MIC ([27]; Peptostreptococcus intermedius 1264, agar-dilution, 24-hour incubation, read-out: MIC): 128 µg/mL (≈ 223 µM)
- MIC [28]: 16 µg/mL (≈ 27.9 µM)
- loss of nitrogen (stability) [29]: spontaneously lose nitrogen
- MIC (Candida albicans): 10 µg/mL (≈ 17.4 µM)

SMILES: C=C1CCC(Cl)C(C)(C)C1CC12OC(C)(C)C(Cl)C=C1C(=O)c1c(cc(O)c(C)c1O)C2=O (centres unmarked) [Compound 5]
- MIC [8, 30]: 4 µg/mL (≈ 8.11 µM)
- MIC [9, 31]: 4 µg/mL (≈ 8.11 µM)
- MIC [10, 32]: 4 µg/mL (≈ 8.11 µM)
- MIC [11, 33]: 8 µg/mL (≈ 16.2 µM)
- MIC [12, 34]: 8 µg/mL (≈ 16.2 µM)
- MIC (Gram-negative): > 128 µg/mL
- MIC [13, 35]: 4 µg/mL (≈ 8.11 µM)
- MIC [14, 36]: 4 µg/mL (≈ 8.11 µM)
- MIC [15, 37]: 4 µg/mL (≈ 8.11 µM)
- MIC [16, 38]: 4 µg/mL (≈ 8.11 µM)
